Reference: US7626042B2, “O-substituted hydroxyaryl derivatives” (Institute of Medicinal Molecular Design, Inc., priority 2002, dated 2009)

System: NF-κB activation
Experiment: Inhibitory activity against NF-κB activation, luciferase reporter assay under TNF-α stimulation
Format: cell-based, human
Details: HepG2 cells, TNF-α 40 ng/ml, 4 hours; for inhibition at 1 µg/mL / inhibition at 10 µg/mL: Homo sapiens, read-out: Inhibitory Ratio of NF-κ B Activation(%)
Description: Inhibitory activity against NF-κB activation was measured by referring to the method of Hill et al. (Cell, (USA), in 1993, Vol. 73, No. 2, p. 395-406). Using a transfection reagent(Effectene; QIAGEN), the human hepatoma cell strain HepG2 was transfected with a plasmid (pNFκ Luc Reporter Plasmid; STRATAGENE) integrated with an oligonucleotide having five tandem copies of NF-κB binding sequences(TGGGGACTTTCCGC) on a upstream region of firefly luciferase gene (Luc) according to the QIAGEN's protocol, and the cells were incubated for 6 to 24 hours. Then the cells were cultured for 4 hours after the addition of TNF-α (40 ng/ml) in the presence of a test compound, and intracellular luciferase activity was measured by using PicaGene LT (TOYO INK MFG Co., Ltd.) and a chemical luminescence measurement apparatus(SPECTRAFluor Plus; TECAN). The inhibitory ratio was measured as a ratio relative to a value of the luciferase activity in the absence of the test compound.

Row | Compound | inhibition at 1 µg/mL (Drug Concentration 1 μg/mL) | inhibition at 10 µg/mL (Drug Concentration 10 μg/mL) | Inhibitory Ratio of NF-κ B Activation(%) (Drug Concentration 1 μg/mL) | Inhibitory Ratio of NF-κ B Activation(%) (Drug Concentration 10 μg/mL)
1 | O=C(Nc1cc(C(F)(F)F)cc(C(F)(F)F)c1)c1cc(Br)ccc1OC(=O)N1CCOCC1 [Compound 77, 5-Bromo-2-(morpholinocarbonyl)oxy-N-[3,5-bis(trifluoromethyl)phenyl]benzamide] | 69.7% | 31% | – | –
2 | COc1ccc(C(C)(C)C)cc1C(=O)Nc1cc(C(F)(F)F)cc(C(F)(F)F)c1 [Compound 94] | – | – | 56.1% | 51.7%
3 | O=C(Nc1cc(C(F)(F)F)cc(C(F)(F)F)c1)c1cc(Cl)ccc1OC(=O)N1CCCC1 [Compound 70] | – | – | 48.1% | 89.6%
4 | COC(=O)Oc1ccc(Cl)cc1C(=O)Nc1cc(C(F)(F)F)cc(C(F)(F)F)c1 [Compound 43, 5-Chloro-2-(methoxycarbonyl)oxy-N-[3,5-bis(trifluoromethyl)phenyl]benzamide] | 94.9% | 97.6% | – | –
5 | CC(C)NC(=O)Oc1ccc(Cl)cc1C(=O)Nc1cc(C(F)(F)F)cc(C(F)(F)F)c1 [Compound 54] | – | – | 96.0% | 98.0%
6 | CC(C)C[C@H](N)C(=O)Oc1ccc(Cl)cc1C(=O)Nc1cc(C(F)(F)F)cc(C(F)(F)F)c1.Cl [Compound 27] | – | – | 95.8% | 99.2%
7 | CCCCC(=O)Oc1ccc(Cl)cc1C(=O)Nc1cc(C(F)(F)F)cc(C(F)(F)F)c1 [Compound 2] | – | – | 97.9% | 98.6%
8 | CC(C)Oc1ccc(Cl)cc1C(=O)Nc1cc(C(F)(F)F)cc(C(F)(F)F)c1 [Compound 96] | – | – | 54.1% | 96.1%
9 | O=C(CNC(=O)Oc1ccc(Cl)cc1C(=O)Nc1cc(C(F)(F)F)cc(C(F)(F)F)c1)N[C@@H](Cc1ccccc1)C(=O)O [Compound 62] | – | – | 96.8% | 97.8%
10 | CC(Oc1ccccc1)C(=O)Oc1ccc(Cl)cc1C(=O)Nc1cc(C(F)(F)F)cc(C(F)(F)F)c1 (stereo not drawn) [Compound 15] | – | – | 97.9% | 99.1%
11 | CCOC(=O)CN(CC(=O)OCC)C(=O)Oc1ccc(Cl)cc1C(=O)Nc1cc(C(F)(F)F)cc(C(F)(F)F)c1 [Compound 75, 2-{N,N-bis[(ethoxycarbonyl)methyl]carbamoyl}oxy-5-chloro-N-[3,5-bis(trifluoromethyl)phenyl]benzamide] | 94.3% | 94.9% | – | –
12 | O=C(Nc1cc(C(F)(F)F)cc(C(F)(F)F)c1)c1c(OC(=O)N2CCOCC2)ccc2ccccc12 [Compound 83, 2-(Morpholinocarbonyl)oxy-N-[3,5-bis(trifluoromethyl)phenyl]-1-naphthamide] | 23.5% | 18% | – | –
13 | CN(C)S(=O)(=O)Oc1ccc(Cl)cc1C(=O)Nc1cc(C(F)(F)F)cc(C(F)(F)F)c1 [Compound 48] | – | – | 37.9% | 90.4%
14 | COC(=O)[C@H](C)NC(=O)Oc1ccc(Cl)cc1C(=O)Nc1cc(C(F)(F)F)cc(C(F)(F)F)c1 [Compound 58] | – | – | 97.9% | 98.8%
15 | CC(C)(C)OC(=O)NCCCC[C@H](NC(=O)CNC(=O)Oc1ccc(Cl)cc1C(=O)Nc1cc(C(F)(F)F)cc(C(F)(F)F)c1)C(=O)OC(C)(C)C [Compound 65] | – | – | 95.8% | 97.3%
16 | O=C1CCC(=O)N(c2cc(C(F)(F)F)cc(C(F)(F)F)c2)C(=O)c2cc(Cl)ccc2O1 [Compound 114] | 97.2% | 98.5% | – | –
17 | Cc1ccc(S(=O)(=O)Oc2ccc(Cl)cc2C(=O)Nc2cc(C(F)(F)F)cc(C(F)(F)F)c2)cc1 [Compound 47] | – | – | 84.7% | 92.5%
18 | COC(=O)[C@H](COC(C)(C)C)NC(=O)Oc1ccc(Cl)cc1C(=O)Nc1cc(C(F)(F)F)cc(C(F)(F)F)c1 [Compound 60] | – | – | 97.7% | 98.9%
